Data taken from ChEMBL document CHEMBL1157583, “Novel irreversible epidermal growth factor receptor inhibitors by chemical modulation of the cysteine-trap portion” (J Med Chem, 2010).
Activity calls are given as the source filed them. No cut-off for these calls is given here.

Columns and labels:
[1] = molecular target: T1, Epidermal growth factor receptor (Homo sapiens, UniProt P00533); assay: Inhibition of human recombinant EGFR expressed in insect cells by time-resolved fluorimetry; assay type: cell-based
T1 sequence (P00533 whole entry): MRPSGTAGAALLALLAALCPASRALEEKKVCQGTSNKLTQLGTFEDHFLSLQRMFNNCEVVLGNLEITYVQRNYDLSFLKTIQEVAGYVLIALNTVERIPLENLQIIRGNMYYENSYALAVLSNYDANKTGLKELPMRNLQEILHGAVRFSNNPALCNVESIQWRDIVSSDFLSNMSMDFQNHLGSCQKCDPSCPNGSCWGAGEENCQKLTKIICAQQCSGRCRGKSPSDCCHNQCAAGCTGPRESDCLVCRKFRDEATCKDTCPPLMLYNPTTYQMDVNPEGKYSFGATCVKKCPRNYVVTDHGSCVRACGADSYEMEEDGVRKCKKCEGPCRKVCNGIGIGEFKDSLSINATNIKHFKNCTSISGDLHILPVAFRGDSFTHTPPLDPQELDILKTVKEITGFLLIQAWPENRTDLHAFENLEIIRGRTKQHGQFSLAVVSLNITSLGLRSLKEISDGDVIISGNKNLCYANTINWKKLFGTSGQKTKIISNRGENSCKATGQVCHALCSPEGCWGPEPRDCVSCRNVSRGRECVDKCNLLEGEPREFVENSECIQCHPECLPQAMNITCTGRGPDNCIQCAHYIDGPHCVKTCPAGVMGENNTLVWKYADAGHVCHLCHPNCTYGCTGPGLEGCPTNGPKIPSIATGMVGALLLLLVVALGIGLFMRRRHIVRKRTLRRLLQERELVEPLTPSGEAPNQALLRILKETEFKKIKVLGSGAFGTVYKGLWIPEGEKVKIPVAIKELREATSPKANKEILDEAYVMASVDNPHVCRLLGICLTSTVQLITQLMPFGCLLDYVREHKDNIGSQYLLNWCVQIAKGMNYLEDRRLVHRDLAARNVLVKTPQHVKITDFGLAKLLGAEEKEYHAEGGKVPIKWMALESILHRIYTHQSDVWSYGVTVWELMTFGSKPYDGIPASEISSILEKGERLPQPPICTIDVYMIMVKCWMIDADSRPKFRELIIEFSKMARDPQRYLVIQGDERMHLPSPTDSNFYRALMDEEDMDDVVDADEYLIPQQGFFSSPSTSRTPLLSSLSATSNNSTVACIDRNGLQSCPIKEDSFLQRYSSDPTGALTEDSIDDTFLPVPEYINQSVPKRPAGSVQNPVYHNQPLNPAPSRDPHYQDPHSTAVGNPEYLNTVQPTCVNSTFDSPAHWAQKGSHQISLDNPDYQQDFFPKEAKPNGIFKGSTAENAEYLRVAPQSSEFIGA

[2] = molecular target: T1, Epidermal growth factor receptor; details: A-431, at 1 µM
Description: Inhibition of EGFR autophosphorylation in human A431 cells at 1 uM after 1 hr by Western blot

[3] = molecular target: T1, Epidermal growth factor receptor; details: A-431, at 1 µM; remark: listed apart in the source
Description: Inhibition of EGFR autophosphorylation in human A431 cells at 1 uM after 8 hrs by Western blot

[4] = test system: NCI-H1975; assay: Cytotoxicity against human NCI-H1975 cells assessed as cell death at 5 uM after 72 hrs by propidium iodide/Hoechst staining based fluorescence microscopy; assay type: functional
[5] = test system: NCI-H1975; assay: Antiproliferative activity against human NCI-H1975 cells after 72 hrs by MTT assay; assay type: functional, cell-based; details: NCI-H1975, 72 h
[6] = test system: SW-620; assay: Cytotoxicity against human SW620 cells at 10 uM after 72 hrs by MTT assay; assay type: cell-based; details: sw-620, 72 h
[7] = molecular target: T1, Epidermal growth factor receptor; assay: Inhibition of EGFR autophosphorylation in human A431 cells after 1 hr by Western blot; assay type: cell-based, A-431
[8] = molecular target: Receptor tyrosine-protein kinase erbB-2 (Homo sapiens) (UniProt P04626); assay: Inhibition of ERBB2 autophosphorylation in human NCI-H1975 cells by Western blot; assay type: cell-based
Sequence of Receptor tyrosine-protein kinase erbB-2 (Homo sapiens) (P04626 whole entry): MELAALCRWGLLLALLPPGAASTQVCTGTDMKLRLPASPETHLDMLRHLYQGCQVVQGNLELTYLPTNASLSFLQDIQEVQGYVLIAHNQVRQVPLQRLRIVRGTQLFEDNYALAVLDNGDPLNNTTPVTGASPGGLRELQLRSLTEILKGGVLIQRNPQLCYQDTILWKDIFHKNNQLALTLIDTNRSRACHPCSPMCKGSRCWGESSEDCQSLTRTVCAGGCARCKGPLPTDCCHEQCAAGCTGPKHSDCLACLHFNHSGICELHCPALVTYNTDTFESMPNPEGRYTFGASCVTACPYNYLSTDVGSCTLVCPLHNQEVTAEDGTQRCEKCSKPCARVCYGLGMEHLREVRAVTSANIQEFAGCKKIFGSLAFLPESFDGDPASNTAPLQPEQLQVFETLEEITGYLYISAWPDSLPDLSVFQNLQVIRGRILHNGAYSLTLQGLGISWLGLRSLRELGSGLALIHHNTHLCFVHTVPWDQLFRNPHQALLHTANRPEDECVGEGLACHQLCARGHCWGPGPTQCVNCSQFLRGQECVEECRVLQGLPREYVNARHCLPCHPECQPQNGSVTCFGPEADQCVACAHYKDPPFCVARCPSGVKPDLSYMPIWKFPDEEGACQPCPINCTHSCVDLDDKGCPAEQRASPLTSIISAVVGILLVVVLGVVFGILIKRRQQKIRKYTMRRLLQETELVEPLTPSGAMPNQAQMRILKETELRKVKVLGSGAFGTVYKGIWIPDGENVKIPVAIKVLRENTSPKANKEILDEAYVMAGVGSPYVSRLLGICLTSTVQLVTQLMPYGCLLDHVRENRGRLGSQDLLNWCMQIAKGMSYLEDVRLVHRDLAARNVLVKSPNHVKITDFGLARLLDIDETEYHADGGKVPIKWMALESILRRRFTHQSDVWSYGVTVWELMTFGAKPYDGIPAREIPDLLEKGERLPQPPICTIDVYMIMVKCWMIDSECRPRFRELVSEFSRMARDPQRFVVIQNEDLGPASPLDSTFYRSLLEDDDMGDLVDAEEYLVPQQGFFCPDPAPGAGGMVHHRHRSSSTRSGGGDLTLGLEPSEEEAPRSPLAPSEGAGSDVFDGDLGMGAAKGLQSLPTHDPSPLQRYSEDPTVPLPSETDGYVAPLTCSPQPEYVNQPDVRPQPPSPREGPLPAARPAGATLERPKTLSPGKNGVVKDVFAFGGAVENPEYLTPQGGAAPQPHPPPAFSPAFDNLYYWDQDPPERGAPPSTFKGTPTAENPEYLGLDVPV

[9] = molecular target: T1, Epidermal growth factor receptor; assay: Inhibition of EGFR autophosphorylation in human A431 cells after 8 hrs by Western blot; assay type: cell-based, A-431
[10] = test system: SW-620; assay: Cytotoxicity against human SW620 cells after 72 hrs by MTT assay; assay type: ADME, cell-based; details: SW-620, 72 h
[11] = test system: NCI-H1975; assay: Induction of apoptosis in human NCI-H1975 cells assessed as activation of caspase-3 at 5 uM after 2 days by Western blot; assay type: functional, cell-based
[12] = test system: A-431; assay: Antiproliferative activity against human A431 cells assessed as viable cells at 10 uM; assay type: functional; details: read-out: Activity

Structure (SMILES) | IC50 [1] [µM] | inhibition [2] [%] | inhibition [3] [%] | also measured
Nc1ccc2ncnc(Nc3cccc(Br)c3)c2c1 | – | 98.5 | 0 | –
O=C(Nc1ccc2ncnc(Nc3cccc(Br)c3)c2c1)[C@@H]1O[C@H]1CN1CCCCC1 | 0.00124 | 99.4 | 96.3 | Activity [4]: 25%; IC50 [5]: 1.72 µM; Activity [6]: < 50%; IC50 [7]: 0.007 µM; inhibition [8]: Dose-dependent effect; IC50 [9]: 0.044 µM; IC50 [10]: > 10 µM
COc1cc2ncnc(Nc3ccc(F)c(Cl)c3)c2cc1OCCCN1CCOCC1 | – | – | – | Activity [11]: Active
C=CC(=O)Nc1ccc2ncnc(Nc3cccc(Br)c3)c2c1 | – | – | – | IC50 [10]: 8.23 µM

More lines, main results first:

IC50 [1] [µM] | inhibition [2] [%] | inhibition [3] [%] | Structure (SMILES) | also measured
0.00085 | 69 | 30.7 | O=C(Cn1sc2ccccc2c1=O)Nc1ccc2ncnc(Nc3cccc(Br)c3)c2c1 | –
0.129 | 82.3 | 66.9 | CC(C)c1nsc(C(=O)Nc2ccc3ncnc(Nc4cccc(Br)c4)c3c2)n1 | –
– | 0 | 0 | O=C(COc1ccccc1)Nc1ccc2ccccc2c1 | viability at 10 µM [12]: < 10%
– | 0 | 0 | CCOC(=O)[C@@H]1O[C@H]1C(=O)Nc1ccc2ccccc2c1 | viability at 10 µM [12]: < 10%
0.00037 | 95.2 | 79.9 | O=C(CNC(=O)Oc1ccccc1)Nc1ccc2ncnc(Nc3cccc(Br)c3)c2c1 | –
0.00843 | 97.4 | 77.6 | O=C(COc1ccc(F)cc1)Nc1ccc2ncnc(Nc3cccc(Br)c3)c2c1 | IC50 [5]: 7.82 µM; IC50 [7]: 0.076 µM; IC50 [9]: 0.291 µM
